In patent US7108865B2, “Controlled-release dosage forms of azithromycin” (Pfizer Inc, priority 1994, dated 2006):

How the values were obtained:
[1] = Recovery of azithromycin in ileostomy fluid after IV infusion in ileostomy subjects; assay type: in vivo, human; conditions: 500 mg IV infusion over 1 hr, twelve ileostomy subjects, 24 hr following dose
Text: A 2.0 g intravenous azithromycin dose is equivalent to a 5.4 g oral azithromycin dose, from the standpoint of equivalent systemic drug exposure. At an even higher intravenous dose, a higher side effect incidence is observed. While GI side effects can be elicited by high intravenous doses, these observations are consistent with the statement that azithromycin GI side effects are mediated by direct contact of the drug with the intestinal wall in the lumen, based upon the following additional study. Twelve ileostomy subjects were administered an IV infusion of 500 mg azithromycin over 1 hr. Serum was collected predose and at 0.17, 0.33, 0.5, 1, 2, 4, 8, 12, 24, 48, 72, 96, 120, and 144 hr following initiation, of the infusion. In addition, the contents of the subjects' ileostomy bags were collected for the following intervals: 12 hr predose, 0–6 hr post-dose, 6–12 hr post-dose, and 12–24 hr post-dose. The serum and ileostomy fluid concentrations of azithromycin were assayed. […] Thus it is not surprising that high intravenous doses of azithromycin can cause gastrointestinal side effects, since a portion of the IV dose partitions into the lumen of the small intestine.

[2] = clinical; conditions: male, human, in vivo
Text: Healthy male subjects were divided into two groups. Group A received a 2 g azithromycin dose administered directly into the duodenum as a solution via a nasoenteric tube. Group B received the same azithromycin solution dose, administered directly into the ileocecal region of the small intestine via a nasoenteric tube. The nasoenteric tube was a single lumen, 4.5 meter tube with a side port for delivery of drug. Placement of the tube for duodenal and ileocecal delivery was confirmed by fluoroscopy. Infusions to the duodenum or ileocecal region were administered at a concentration of 40 mg/ml within 5 minutes. All subjects were dosed after an overnight fast. Subjects were randomized to receive azithromycin and placebo via nasoenteric tube and intravenous infusion in a double-blind, placebo controlled fashion.
Blood samples were withdrawn prior to dosing, and at 0.08, 0.17, 0.33, 0.66, 1, 2, 4, 8, 12, 24, 48, 72, and 96 hr post-dosing. Serum azithromycin concentrations were determined using the high performance liquid chromatography assay described in Shepard et al., J. Chromatography, 565: 321–337, (1991). Total systemic exposure to azithromycin was determined by measuring the area under the serum azithromycin concentration vs. time curve (AUC) for each subject in a given group, and then by calculating a mean AUC for the group. Cmax is the highest serum azithromycin concentration achieved in a subject. Tmax is the time at which Cmax is achieved. In one leg of this study, all subjects received an intravenous 2g azithromycin dose. The intravenous AUC was determined in order to calculate the absolute duodenal and ileocecal bioavailabilities, as described below.

dose recovered intact in the ileostomy fluid [1]: 13% | AUC0–96 [2]: 14.5 µg·h/mL | bioavailability [2]: 39.1% | bioavailability for duodenal dosing (AUCduodenal/AUCIV×100) [2]: 43.8% | overall systemic exposure (AUC) lower for ileocecal dosing compared with duodenal dosing [2]: 15% | AUC(0-t) ([2]; AUC0–96): 17000 ng·h/mL
SMILES: CC[C@H]1OC(=O)[C@H](C)[C@@H](O[C@H]2C[C@@](C)(OC)[C@@H](O)[C@H](C)O2)[C@H](C)[C@@H](O[C@@H]2O[C@H](C)C[C@H](N(C)C)[C@H]2O)[C@](C)(O)C[C@@H](C)CN(C)[C@H](C)[C@@H](O)[C@]1(C)O [azithromycin, 9a-aza-9a-methyl-9-deoxo-9a-homoerythromycin A]
